The text below walks through data of patent US12590067B2, “Herbicidal cyclohexanedione derivatives” (SYNGENTA CROP PROTECTION AG, priority 2019, dated 2026).

What all share (assay): Glasshouse herbicidal test, pre- and post-emergence, percentage damage to the plant
Holding throughout (type): in vivo
What all share (conditions): 250 g/h, evaluated after 13 days

One experiment concerns Lolium perenne (LOLPE). In short, it runs like this: (§1)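 Spraying at 250 g/h took place either pre-emergence (one day after sowing) or post-emergence (after eight days' cultivation). Percentage damage was evaluated 13 days afterwards and binned into five classes, 1=0-19% up to 5=80-100%.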
Experiment [1] has as its system Echinochloa crus-galli (ECHCG). Summed up: as §1
The next experiment deals with Setaria faberi (SETFA). In short, it runs like this: as §1
The next experiment deals with Avena fatua (AVEFA). Summed up: as §1
Experiment [2] deals with Alopecurus myosuroides (ALOMY). In short, it runs like this: as §1

With `CC(=O)N1CCC2(CC1)CC(=O)C(c1c(C)cc(-c3ccc(C#N)cn3)cc1Cl)C(=O)C2` [Compound A56], in the experiment on Lolium perenne (LOLPE) (post-emergence), the “LOLPE POST percentage damage caused to the plant (five-point scale)” value is recorded as 5 (5=80-100%). The “LOLPE PRE percentage damage caused to the plant (five-point scale)” value with Lolium perenne (LOLPE) (pre-emergence) was 5 (5=80-100%). Besides, the “ECHCG POST percentage damage caused to the plant (five-point scale)” value in experiment [1] (post-emergence) was 5 (5=80-100%). For the same compound, in experiment [1] (pre-emergence), the “ECHCG PRE percentage damage caused to the plant (five-point scale)” value is listed as 4 (4=60-79%). Besides, the “SETFA POST percentage damage caused to the plant (five-point scale)” value with Setaria faberi (SETFA) (post-emergence) is on record as 5 (5=80-100%). In addition, the “SETFA PRE percentage damage caused to the plant (five-point scale)” value in the experiment on Setaria faberi (SETFA) (pre-emergence) is 5 (5=80-100%). Moreover, the “AVEFA POST percentage damage caused to the plant (five-point scale)” value in the experiment with Avena fatua (AVEFA) (post-emergence) is on record as 5 (5=80-100%). Moreover, in the experiment with Avena fatua (AVEFA) (pre-emergence), the “AVEFA PRE percentage damage caused to the plant (five-point scale)” value was 3 (3=40-59%). The “ALOMY POST percentage damage caused to the plant (five-point scale)” value in experiment [2] (post-emergence) is on record as 5 (5=80-100%). Further, the “ALOMY PRE percentage damage caused to the plant (five-point scale)” value in experiment [2] (pre-emergence) was 3 (3=40-59%).
